The source made the active and inactive calls. How the calls were made is not given here.
System: S. cerevisiae SKN7-toxicity growth rescue, plate reader
Experiment: SKN7 mediated toxicity in Saccharomyces cerevisiae, growth rescue counterscreen, dose confirmation (AID 624258);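 further: growth read after three days of incubation at 30 °C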

| SMILES | AC40 |
| --- | --- |
| COC(=O)C1CCN(C2CC(=O)N(c3cc(C)cc(C)c3)C2=O)CC1 (stereo not drawn) | 6630 nM |
| Cc1onc(-c2c(Cl)cccc2Cl)c1C(=O)N/N=C(\N)COc1ccc(Cl)cc1 | 2550 nM |
| Cc1c(C(=O)NCCSCc2cccc(C(F)(F)F)c2)cnn1-c1ccc(Cl)cc1 | 6530 nM |
| CCC(Oc1ccccc1)C(=O)Nc1ncc([N+](=O)[O-])s1 (stereo not drawn) | 668 nM |
| CC1S/C(=C(\C#N)C(=O)NCc2ccco2)N(Cc2ccco2)C1=O (stereo not drawn) | > 19500 nM (inactive) |
| Cc1nc(SCC(=O)N2CCN(c3ccccc3)CC2)c2oc3ccccc3c2n1 | 3530 nM |
| CCCCC(=O)NC(c1ccc(N(C)C)cc1)c1ccc2cccnc2c1O (stereo not drawn) | 754 nM |
| COC(=O)/C=C\C(=O)Nc1cccc([N+](=O)[O-])c1 | 2170 nM |
| O=c1[nH]c(=O)n(C2OC(CO)C(O)C2O)cc1F (stereo not drawn) | 12900 nM |
| N#CC1=C(N)NC(=S)C(C(N)=O)C1c1ccc(Cl)cc1Cl (stereo not drawn) | 10500 nM |
| O=C(N/N=C/c1c(O)n(Cc2ccccc2)c(=O)c2ccccc12)c1cccnc1 | 1010 nM |
| COc1ccc(NC(=O)/C(Cl)=C(/Cl)S(=O)(=O)Cc2ccc(C)cc2)cn1 | 1240 nM |
| Cc1nn(CCO)c(N)c1C1(O)C(=O)Nc2c(Cl)cc(Cl)cc21 (stereo not drawn) | 18500 nM |
| CC(NCCN(C)C)C1CCC2C3CCc4cc(O)ccc4C3CCC12C (stereo not drawn) | 126 nM |
| O=S(=O)(Nc1nc2ccccc2nc1N1CCN(c2ccccn2)CC1)c1ccc(Cl)cc1 | 818 nM |
| C(=N\NC1=Nc2cccc3cccc1c23)/c1ccccn1 | 5470 nM |
| CCN(CC)c1ccc(/C=N/NC(=O)c2c(Cl)cnn2C)c(O)c1 | 878 nM |
| CCOC(=O)N1CCN(S(=O)(=O)c2ccc(C(=O)NNc3nc4ccc(Cl)cc4s3)cc2)CC1 | 6890 nM |
| COc1ccccc1CNC(=O)CSc1ccc(-c2ccccn2)nn1 | 10300 nM |
| COc1ccc(-c2cc(C(=O)NNC(=S)NC(=O)c3c(-c4ccccc4)noc3C)[nH]n2)cc1 | 2310 nM |
| O=C(N/N=C/c1cc(Br)ccc1O)c1ccccc1Cl | 659 nM |

| SMILES | AC40 |
| --- | --- |
| Cc1nn(-c2nnc(NC3CCCCC3)nn2)c(C)c1Br | 6480 nM |
| CCCCNC1=CC(=O)C(=O)c2ccccc21 | 17500 nM |
| COc1ccc(N=NC2=C(O)CC(C)(C)CC2=O)c(OC)c1 | 306 nM |
| O=C(CSc1ccc(-c2ccccn2)nn1)NC1CCCCC1 | 16100 nM |
| COC(=O)c1ccc(N2C(=O)CC(N(C)CCc3ccc(OC)c(OC)c3)C2=O)cc1 (stereo not drawn) | 8600 nM |
| CCc1nc2ccccc2c(=O)n1NC(=O)c1c(O)c2ccccc2n(CC)c1=O | 2090 nM |
| COc1ccc2c(c1)[C@H]1[C@H](CO2)[C@H](c2ccccc2)[C@]2(C)C(=O)Nc3ccc(Cl)cc3C(=O)N12 | 17200 nM |
| O=C(NNC(=O)c1cc(Cl)ccc1O)c1ccc(NS(=O)(=O)c2cccs2)cc1 | 5750 nM |
| COc1cccc(Oc2cncnc2-c2ccc(OC)cc2O)c1 | 18900 nM |
| Clc1cccc(N/N=C(\Cc2nc3ccccc3[nH]2)c2ccccc2)c1 | 2610 nM |
| Cc1ccc(NC2=CC(=O)C(=O)c3ccccc32)c(C)c1 | 18700 nM |
| CCOC(=O)c1cccc2c1-c1ccccc1/C2=N/O | 1910 nM |
| Cc1ccc(C)c(C(=O)O/N=C(\N)c2ccc(Br)cc2)c1 | 3860 nM |
| O=C(Cc1ccccc1F)Nc1nc(-c2ccc(F)c(F)c2)cs1 | 2540 nM |
| Oc1ccc(Cl)cc1CNc1cccc2cccnc12 | 156 nM |
| CCCCCCCCCCn1c2c(c(=N)c3c1CCC3)CCC2 | > 6800 nM (inactive) |
| COc1cccc2c1C(=O)c1c(O)c3c(c(O)c1C2=O)CC(O)(C(C)=O)CC3OC1CC(N(C)C)C(O)C(C)O1 (stereo not drawn) | 2850 nM |
| Cc1ccc(N(CN2C(=O)c3ccccc3C2=O)C(=O)c2ccc([N+](=O)[O-])cc2[N+](=O)[O-])cc1 | 7160 nM |
| C=CS(=O)(=O)c1sc(Cl)c(N2CCOCC2)c1[N+](=O)[O-] | 653 nM |
| Cc1ccc2c(C)c3ccc4ccccc4c3c[n+]2c1 | 247 nM |
| COc1cccc(C(=O)N/N=C(/c2ccccc2)c2ccccn2)c1 | 3840 nM |

| SMILES | AC40 |
| --- | --- |
| CC(C)(C)c1ccc(Cn2ccc(-c3ccc4c(c3)OCO4)n2)cc1 | 8820 nM |
| CCC(=O)NC(c1cc(Cl)c2cccnc2c1O)C(C)C (stereo not drawn) | 3150 nM |
| O=NN(CCc1ccncc1)c1ccc(OCc2ccccc2)cc1 | 2980 nM |
| O=c1c(O)cccc2cc(O)c(O)c(O)c12 | 2270 nM |
| O=C(C=Cc1cccc(O)c1)c1ccccc1O | 1430 nM |
| Cc1ccc(C(C)(C)C)cc1S(=O)(=O)Nc1ncnc2sccc12 | 1150 nM |
| CCOC(=O)c1c(-c2ccccc2)oc2ccc(O)cc12 | 10400 nM |
| Cc1cccc(C(=O)NC(=S)NNC(=O)Cc2ccccc2)c1 | 1220 nM |
| Cc1n[nH]c(C)c1N=Nc1ccc(Br)cc1 | 1760 nM |
| C/C(=N\NC(=S)NC1CCCCC1)c1c(F)cccc1F | 3390 nM |
| Cc1cc(C(=O)N/N=C/c2cc(Br)cc([N+](=O)[O-])c2O)c2ccccc2n1 | 1270 nM |
| S=c1[nH]nc(-c2ccco2)n1/N=C/C(Cl)=C/c1ccccc1 | 10800 nM |
| C=CS(=O)(=O)c1ccc(Oc2ccc(S(=O)(=O)C=C)cc2)cc1 | 7950 nM |
| O=C(N[C@@H](Cc1ccccc1)C(=O)CCl)OCc1ccccc1 | 1140 nM |
| N/C(Cc1ccc(Cl)cc1Cl)=N\OC(=O)c1ccc(Br)o1 | 746 nM |
| CC1=C(C)/C(=N\OS(=O)(=O)c2ccc(C)cc2)C=CC1=O | 1110 nM |
| O=C(O)c1ccc(N/N=C/C=C/c2ccccc2)cc1 | 1110 nM |
| CC1=CC(=O)C(C(C)C)=C/C1=N/OS(=O)(=O)c1ccccc1 | 110 nM |
| O=[N+]([O-])c1cccc(-c2cc(-c3cc(Br)ccc3O)[nH]n2)c1 | 8390 nM |
| Cc1ccc(C)c(NS(=O)(=O)c2cc(C(=O)N3CCc4ccccc4C3)ccc2Cl)c1 | 6580 nM |
| c1ccc2c(-c3c[nH]c4ccccc34)c3ccccc3nc2c1 | 5730 nM |

| SMILES | AC40 |
| --- | --- |
| COc1ccc(-c2cc(C(=O)N3CCN(c4ccccc4F)CC3)c3ccccc3n2)c(OC)c1 | > 19500 nM (inactive) |
| COc1cc(OC)cc(N2C(=O)CC(N3CCC(C(=O)N4CCCCC4)CC3)C2=O)c1 (stereo not drawn) | 13700 nM |
| COc1ccc2c(n1)Sc1nc3ccccc3nc1N2 | 649 nM |
| CCc1cc(C(N)=O)c(NC(=O)c2ccc(OC)cc2)s1 | 6020 nM |
| Cc1ccc(CN=Cc2[nH]c3ccc(Br)c(Cl)c3c2O)cc1 | 9030 nM |
| O=C(O)c1ccc(C(=O)c2cc([N+](=O)[O-])cc([N+](=O)[O-])c2)cc1 | 15700 nM |
| COc1ccc2c(c1)c1nnc(SC)nc1n2C | 2000 nM |
| CC(=O)Nc1ccc2c(c1)Cc1cc(N3C(=O)C=CC3=O)ccc1-2 | 236 nM |
| Cc1ccc(-n2nnnc2C(Cl)c2nnnn2-c2ccc(C)cc2)cc1 | 497 nM |
| Cc1ccc(C(C[N+](=O)[O-])c2c(N)n(C)c(=O)n(C)c2=O)cc1 (stereo not drawn) | 4960 nM |
| O/N=C/c1cc(Br)ccc1OCc1cccc(F)c1 | 5830 nM |
| O=C1C(Br)=Cc2cccc3cccc1c23 | 5810 nM |
| O=C1c2ccccc2C(=O)c2c1oc(C(F)(F)F)c2C(=O)c1ccccc1 | 2600 nM |
| COc1ccc(-n2nc(C#N)c(Cl)cc2=O)cc1 | 5220 nM |
| O=S(=O)(CCSc1ccccn1)c1nc2ccccc2s1 | 6530 nM |
| Cc1onc(-c2ccccc2)c1C(=O)NC(=S)NNC(=O)c1cc(-c2ccc(F)cc2)n[nH]1 | 2100 nM |
| CC(C)=CCc1c(O)cc(O)c2c1OC(c1ccc(O)cc1)CC2=O (stereo not drawn) | 12700 nM |
| c1ccc(Nc2cccc(Nc3ccccc3)c2)cc1 | 766 nM |
| COc1cc(NC(=O)CSc2ccc(-c3ccccn3)nn2)cc(OC)c1 | 894 nM |
| Cc1ccc(NC(=O)c2cc(N3C(=O)C=CC3=O)ccc2Cl)cc1C | 342 nM |
